Test results from patent publication US8729226B2, “Cancer therapy method” (Centro de Ingenieria Genetica y Biotecnologia, priority 2010, dated 2014).

Legend:
[1] = tested on: COMMD1 nuclear localization in SW948 cells; experiment: COMMD1 sub-cellular (nuclear) localization in SW948 cells, Western blot; format: cell-based, human; details: peptide 50 μM, 5 hours
Protocol: (B) SW948 cells (3×10^6 cells) were incubated for 5 hours at 37° C. and 5% CO2 with the L2 peptide (50 μM). Subsequently, cytosolic and nuclear proteins were obtained as reported (Vancurova et al., 2001, Journal of Biological Chemistry, 276: 19746-19752). The COMMD1 detection was performed by Western blot using an anti-COMMD1 antibody. […] Beta Actin was used as a control for the cytoplasmic fraction and the human ribonucleoprotein (hnRNP) as a control of the nuclear fraction.
In this experiment the objective was to identify a peptide with a higher capacity to accumulate COMMD1 in the nucleus of the cells. SW948 cells (3×10^6 cells) were incubated for 5 hours at 37° C. and 5% CO2 with L2, L551, L552, L553 and L554 peptides (50 μM). Subsequently, isolation of cytosolic and nuclear proteins was performed as described in Example 2. COMMD1 detection was performed by Western blot using an anti-COMMD1 antibody. […] Also, the interaction is related to the facilitation of nuclear accumulation of COMMD1.

[2] = target: T1, COMMD1 protein (Homo sapiens, UniProt Q8N668); experiment: pulldown with biotinylated L2 peptide, SW948 total protein extract, Western blot; format: binding; set-up: Total extract protein from SW948 (cell line from human colon carcinoma); endogenous in cells; host or cells: SW948; details: compared to total protein extract
Protocol: (A) The synthetic L2 peptide (SEQ ID No. 1), synthesized using a solid phase procedure was biotinylated and used as “bait” attached to a streptavidin sepharose resin. Total extract protein from SW948 (cell line from human colon carcinoma) was used as a “prey”. These experiments are known as “pulldown”. The total extract protein was obtained from […] cells using extraction buffer (Triton X-100 0.5% 25 mM HEPES, pH 7.5, 100 mM NaCl, 1 mM EDTA, 10% glycerol, 1 mM dithiothreitol (DTT), and a protease inhibitor). The biotinylated peptide (300 μg) was incubated with 50 μL of streptavidin sepharose resin (GE Healthcare), for 1 hour, and washed with phosphate buffered saline (PBS 1×) plus 1 mM DTT were done. Then, 500 μL of total proteins were incubated with 50 μL resin containing the biotinylated peptide, at room temperature for 5 hours. Subsequently, the resin is washed extensively with PBS 1× and 1 mM DTT. Proteins remaining attached to the resin are those that interact with the peptide, and are suspended in 25 μL of electrophoresis buffer (62.5 mM Tris HCl, pH 6.9, 0.1 M DTT, 20% sodium dodecyl-sulphate (SDS), 10% glycerol and 0.01% bromophenol blue). To detect the protein of interest a polyacrylamide gel electrophoresis (7.5%) was performed, followed by immunodetection by Western blot. To detect the COMMD1 protein, a monoclonal antibody against COMMD1 protein (Sigma, clone 2A12) was used. […]
Target sequence in this assay (Q8N668 whole entry): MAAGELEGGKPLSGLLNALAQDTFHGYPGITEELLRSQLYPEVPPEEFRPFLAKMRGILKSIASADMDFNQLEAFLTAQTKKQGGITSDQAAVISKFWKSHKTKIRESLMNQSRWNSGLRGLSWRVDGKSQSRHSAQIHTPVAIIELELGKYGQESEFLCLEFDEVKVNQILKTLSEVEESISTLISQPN

[3] = target: T1, COMMD1 protein; experiment: two-hybrid yeast system, L2 peptide-protein interaction; format: binding; set-up: expressed in transfected cells; host or cells: Saccharomyces cerevisiae Y187 (mated with AH109 carrying pGBKL2-1); details: COMMD1 deletion clones
Protocol: To identify anti-tumor L2 peptide-protein interactions the two-hybrid yeast system was used. For cloning the sequences corresponding to the peptide the oligonucleotides were designed as follows:
corresponding to the L2 peptide sequence: […] For cloning these sequences in the pGBKT7 NcoI-BamHI vector, sequences complementary to these sites were added at the ends of the oligonucleotides. The pGBKL2-1 recombinant plasmid, which carries the L2 peptide sequence was verified by restriction analysis and sequencing. The plasmid was transformed into the AH109 yeast strain by the lithium acetate method and grown in SD-Trp medium. It was verified that it could not be self-activated when grown on SD-Trp-His plates. For the screening of the interactions, a human liver cDNA library transformed into the Y187 strain was used. For the diploid formation and the selection of interactions, 5×10^8 AH109 cells containing the pGBKL2-1 plasmid were grown with 5×10^8 Y187 cells containing the human liver DNA library, for 4 hours, on solid medium YPDA at 30° C. Ten ml of sterile water were added on the surface of the YPDA plates, and the cells were suspended carefully with spatula and transferred to 15 plates of SD-Trp-Leu-His-Ade minimal media and grown at 30° C. for 7 days. The 74 resulting colonies were transferred to liquid SD-Trp-Leu in 96 deep well plates. […]
Target sequence in this assay (Q8N668 6-190): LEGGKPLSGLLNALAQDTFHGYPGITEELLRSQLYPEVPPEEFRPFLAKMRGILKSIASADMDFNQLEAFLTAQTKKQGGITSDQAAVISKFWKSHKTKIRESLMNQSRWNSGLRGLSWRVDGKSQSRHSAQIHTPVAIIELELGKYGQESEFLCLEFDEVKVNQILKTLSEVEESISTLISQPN

[4] = tested on: HT-29 tumor cells; experiment: combination L552 peptide and cytostatic, MTT, CalcuSyn, HT-29; format: cell-based, human
Protocol: (§1) For this assay, HT-29 and H-125 tumor cells were seeded in 96-well plates (Costar) at a density of 1×10^4 cells mL in RPMI 1640 (Gibco) supplemented with fetal calf serum (Gibco). After 24 hours, the peptide was added to the culture medium in a dose range between 9 μM and 300 μM and the cytostatic drug was added in a range dose of 1:10 serial dilution over and below the reported IC50 for each cell line. […] The effect of concomitant treatment cytostatic-peptide was analyzed by the CalcuSyn computer software to study drug combinations (Ting-Chao Chou, 2006, Pharmacological Reviews, 58: 621-681). […] The combination 5-FU+L552 peptide allows a 20 times reduction (RI) of cytostatic in the HT-29 cell line. For the combination cisplatin+L552 peptide, the cytostatic reduction is 5 times in the H-125 cell line. […] This can reduce the adverse effects associated with chemotherapy.

[5] = tested on: HT-29 cell line transiently transfected with GFP-N-COMMD1; experiment: chemosensitivity to 5-FU of transfected HT-29 cells, MTT; format: cell-based, human; details: cells expressing GFP-NCOMMD1 compared to GFP or GFP-COMMD1, 48 hours
Protocol: (A) The HT-29 cell line transiently transfected with constructs described above were seeded in 96-well plates (Costar) at density of 1×10^4 cells/mL in RPMI 1640 (Gibco) supplemented with fetal calf serum (Gibco) After 24 hours, the cytostatic 5-FU was added to the culture medium in a dose range between 0.025 μM and 2500 μM, in 1:10 serial dilutions. […] Finally, the plate reading at an absorbance of 492 nm was carried out. Each point was performed in duplicate, and experiments were carried out at least twice independently. The IC50 values were obtained from the respective curves of cell proliferation.

[6] = tested on: H-125 tumor cells; experiment: combination L552 peptide and cytostatic, MTT, CalcuSyn, H-125; format: cell-based, human
Protocol: as §1

HARIKPTFRRLKWKYKGKFW [Peptide L2, Peptide previously described in application WO 07/095 867]
COMMD1 nuclear localization / accumulation [1]: COMMD1 nuclear localization
COMMD1 pulled down by the peptide [2]: concentrates the COMMD1 protein
interaction with COMMD1 (region responsible) [3]: specifically binds the region between amino acids 110-190

O=c1[nH]cc(F)c(=O)[nH]1 [Peptide 5-FU, 5-fluorouracil]
Drug 5-FU ([4]; HT-29, at Af 89%): 5000 µM
RI (5-FU) ([4]; HT-29, reduction index of the drug in combination with L552): 20
IC50 of 5-FU [5]: reduction of the IC50

N.N.[Cl][Pt][Cl] [cisplatin]
Drug cisplatin ([6]; H-125, at Af 94%): 273 µM
RI (cisplatin) ([6]; H-125, reduction index of the drug in combination with L552): 5
